Inconclusive results and toxic doses are left out.
System: CD2F1 mice, L1210 leukemia ip, survival T/C
Assay: NCI In Vivo Anticancer Drug Screen. Data for tumor model L1210 Leukemia (intraperitoneal) in CD2F1 (CDF1) mice
Details: endpoint: mean survival time, higher = longer survival
Method in brief: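 Mice carrying a transplanted tumor received test compound or vehicle alone. The value is the measurement in the treated group divided by that in the vehicle-treated control group.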

[1] = dose: 50.0 mg/kg/injection, schedule: Q01DX009 (ip), vehicle: saline with Tween-80
[2] = dose: 100.0 mg/kg/injection, schedule: Q01DX009 (ip), vehicle: saline with Tween-80
[3] = dose: 200.0 mg/kg/injection, schedule: Q01DX009 (ip), vehicle: saline with Tween-80
[4] = dose: 12.5 mg/kg/injection, schedule: Q01DX009 (ip), vehicle: saline with Tween-80
[5] = dose: 100.0 mg/kg/injection, schedule: Q01DX001 (ip), vehicle: saline with Tween-80
[6] = dose: 200.0 mg/kg/injection, schedule: Q01DX001 (ip), vehicle: saline with Tween-80

## CCCOC(=O)c1cc([N+](=O)[O-])c(Sc2ncnc3nc[nH]c23)c([N+](=O)[O-])c1
dose: 0.63 mg/kg/injection, schedule: Q01DX005 (ip), vehicle: other
  T/C: 109 % of control
dose: 1.25 mg/kg/injection, schedule: Q01DX005 (ip), vehicle: other
  T/C: 116 % of control
dose: 2.5 mg/kg/injection, schedule: Q01DX005 (ip), vehicle: other
  T/C: 111 % of control
dose: 5.0 mg/kg/injection, schedule: Q01DX005 (ip), vehicle: other
  T/C: 111 % of control
dose: 10.0 mg/kg/injection, schedule: Q01DX005 (ip), vehicle: other
  T/C: 121 % of control
dose: 62.5 mg/kg/injection, schedule: Q01DX005 (ip), vehicle: other
  T/C: 165 % of control
dose: 125.0 mg/kg/injection, schedule: Q01DX005 (ip), vehicle: other
  T/C: 101 % of control

## O=[N+]([O-])c1ccc(N=Nc2ccc3c(c2)-c2ccccc2C3=P(c2ccccc2)(c2ccccc2)c2ccccc2)cc1
[1]
  T/C: 94 % of control
[2]
  T/C: 91 % of control
dose: 100.0 mg/kg/injection, schedule: Q04DX003 (ip), vehicle: saline with Tween-80
  T/C: 91 % of control
[3]
  T/C: 94 % of control
dose: 200.0 mg/kg/injection, schedule: Q04DX003 (ip), vehicle: saline with Tween-80
  T/C: 91 % of control

## CCCCCC(CN(C)C)C(=O)/C=C/c1ccc(Cl)c(Cl)c1 (stereo not drawn)
dose: 6.25 mg/kg/injection, schedule: Q01DX009 (ip), vehicle: acetone
  T/C: 92 % of control
dose: 12.5 mg/kg/injection, schedule: Q01DX009 (ip), vehicle: acetone
  T/C: 94 % of control
dose: 25.0 mg/kg/injection, schedule: Q01DX009 (ip), vehicle: acetone
  T/C: 97 % of control

## CCOC(=O)C1=C(N)CCCC1
dose: 100.0 mg/kg/injection, schedule: Q01DX001 (ip), vehicle: Klucel (hydroxypropylcellulose) (HPC)
  T/C: 96 % of control
dose: 200.0 mg/kg/injection, schedule: Q01DX001 (ip), vehicle: Klucel (hydroxypropylcellulose) (HPC)
  T/C: 122 % of control
dose: 400.0 mg/kg/injection, schedule: Q01DX001 (ip), vehicle: Klucel (hydroxypropylcellulose) (HPC)
  T/C: 96 % of control

## Oc1ccc(SCc2ccc(NCc3ccccc3)cc2)cc1
dose: 12.5 mg/kg/injection, schedule: Q01DX009 (ip), vehicle: DMSO
  T/C: 95 % of control
[4]
  T/C: 99 % of control
dose: 25.0 mg/kg/injection, schedule: Q01DX009 (ip), vehicle: DMSO
  T/C: 97 % of control
dose: 25.0 mg/kg/injection, schedule: Q01DX009 (ip), vehicle: saline with Tween-80
  T/C: 97 % of control
dose: 50.0 mg/kg/injection, schedule: Q01DX009 (ip), vehicle: DMSO
  T/C: 97 % of control
[1]
  T/C: 103 % of control
dose: 100.0 mg/kg/injection, schedule: Q01DX009 (ip), vehicle: DMSO
  T/C: 92 % of control
[2]
  T/C: 104 % of control
[3]
  T/C: 101 % of control
dose: 400.0 mg/kg/injection, schedule: Q01DX009 (ip), vehicle: saline with Tween-80
  T/C: 101 % of control

## NCCc1nc(N)nc(N)c1-c1ccc(Cl)cc1
[5]
  T/C: 103 % of control
[6]
  T/C: 97 % of control

## CC(=O)Oc1cc2c3c(c1)CCCN3CCC2
dose: 5.0 mg/kg/injection, schedule: Q04DX003 (ip), vehicle: saline
  T/C: 102 % of control
dose: 6.25 mg/kg/injection, schedule: Q01DX009 (ip), vehicle: saline with Tween-80
  T/C: 101 % of control
[4]
  T/C: 96 % of control

## O=CNc1cc([N+](=O)[O-])ccc1OCc1ccccc1
dose: 100.0 mg/kg/injection, schedule: Q01DX001 (ip), vehicle: saline
  T/C: 100 % of control
dose: 200.0 mg/kg/injection, schedule: Q01DX001 (ip), vehicle: saline
  T/C: 97 % of control
dose: 400.0 mg/kg/injection, schedule: Q01DX001 (ip), vehicle: saline
  T/C: 96 % of control

## CC(=O)OC1COC(n2c(O)c(N=NC(N)=S)c3cc([N+](=O)[O-])ccc32)C(OC(C)=O)C1OC(C)=O (stereo not drawn)
dose: 12.5 mg/kg/injection, schedule: Q01DX005 (ip), vehicle: other
  T/C: 96 % of control
dose: 25.0 mg/kg/injection, schedule: Q01DX005 (ip), vehicle: other
  T/C: 96 % of control
dose: 50.0 mg/kg/injection, schedule: Q01DX005 (ip), vehicle: other
  T/C: 92 % of control
dose: 100.0 mg/kg/injection, schedule: Q01DX005 (ip), vehicle: other
  T/C: 88 % of control

## O=S1(=O)CC2(OCCO2)C1Cl (stereo not drawn)
dose: 100.0 mg/kg/injection, schedule: Q04DX002 (ip), vehicle: saline with Tween-80
  T/C: 95 % of control
dose: 200.0 mg/kg/injection, schedule: Q04DX002 (ip), vehicle: saline with Tween-80
  T/C: 91 % of control

## BrC1(Br)C2COCOCC21 (stereo not drawn)
[5]
  T/C: 94 % of control
[6]
  T/C: 94 % of control
dose: 400.0 mg/kg/injection, schedule: Q01DX001 (ip), vehicle: saline with Tween-80
  T/C: 94 % of control

## COc1cc(OC)c(NC(=O)Oc2cc(C)c(Cl)c(C)c2Cl)cc1Cl
[1]
  T/C: 94 % of control
[2]
  T/C: 94 % of control
[3]
  T/C: 97 % of control
